Results reported in patent US9907806B2, “Pharmaceutical composition for emergency contraception” (Bayer Intellectual Property GmbH, priority 2009, dated 2018).
Where “and” joins values, the source holds several entries; their conditions need not be identical. Equal values may be shown once. Read-outs that look alike come from different tables or passages of the source.

Key:
ovulation [1] = conditions: 21-day use; cited from earlier work
ovulation [2] = conditions: cited from earlier work
[3] = system: adult female rats with normal cycles; assay: Ovulation inhibition test on rats; assay type: in vivo, rat; conditions: 5 animals; for Ovulation count, absolute / Ovulation count, mean: 4 days
Procedure: The efficacy of the composition according to the invention was ascertained by ovulation-inhibiting studies carried out on adult female rats with normal cycles. First, using 5 dose groups plus placebo (0.003 mg, 0.01 mg, 0.03 mg, 0.1 mg and 0.3 mg), the limit dose of levonorgestrel (LNG) was determined at which there is still no ovulation-inhibiting effect.
With the dose of LNG thus determined (0.01 mg), a comparison test was then carried out in which the ovulation-inhibiting effect of LNG, placebo, meloxicam, piroxicam, and the combination of LNG and meloxicam, was compared against the composition, according to the invention, of LNG plus piroxicam.
With the onset of the metestrus, 5 animals in each case were treated on four successive days with (a) placebo, (b) 0.01 mg of LNG, (c) 2 mg of piroxicam, (d) 0.01 mg of LNG and 2 mg of piroxicam, (e) 2 mg of meloxicam, and (f) […] of LNG and 3 mg of meloxicam. LNG was given by s.c. administration, and the COX inhibitor was given orally (p.o.).
In the following test, female rats weighing between 200 and 220 g were used. The animals were housed in macrolon cages in rooms under controlled lighting conditions (12 hours of darkness, 12 hours of light), were fed a standard diet and had access to water ad libitum.
Levonorgestrel was dissolved in benzyl benzoate/castor oil (1+4 v/v), and the daily dose was given by s.c. administration in a volume of 1 ml/kg body weight.
The COX inhibitors were suspended in a carrier liquid (85 mg of MyrjR53 (2-hydroxyethyl octadecanoate; CAS no. 9004-99-3) in 100 ml of 0.9% w/v NaCl solution), and the daily dose corresponding to the treatment group was administered orally in a volume of 2 ml/kg body weight.
(§1) Two cycles were monitored using vaginal smears before the start of the test. Only animals with a regular 4-day cycle were entered in the test. The allocation to the treatment groups was randomized. Starting in the metestrus, the test substance was administered for 4 days (days 1-4) and the cycle continued to be monitored. On day 3 of treatment (proestrus), a retrobulbar blood sample was taken at 9.00 h and from 18.30 h in order to determine the luteinizing hormone (LH). On day 4 (after administration), the animals with vaginal smears showing them in estrus or metestrus underwent unilateral ovariectomy under anaesthetic. Crush preparations were made from the tubes and were examined under a microscope for the presence of oocytes. On day 5, all the animals (the intact animals and those having undergone unilateral ovariectomy) were sacrificed, and the tubes of the animals in estrus and metestrus were prepared and examined in the same way. […] By contrast, the COX inhibitors on their own provide only partial suppression of ovulation.
(§2) The test set-up corresponds to the one described in Example 1.

[4] = system: serum progesterone concentration; assay: Serum progesterone concentration in proestrus at 19.00 h (Example 2); assay type: in vivo, rat
Procedure: This can be seen as an indicator of the efficiency of the LH peak in changing from a predominantly estrogen-producing ovary (before the LH peak) to a predominantly progesterone-producing ovary (caused by the LH peak). […] By contrast, the literature describes that other COX inhibitors have no effect on the hormonal levels [Pall et al.; Human Reproduction vol. 16, no. 7, pp 1323-1328 (2001); Bata et al., J Clin Pharmacol (2006) 46:925-932]. […] The ovulation rates in the combination with 0.01 mg of levonorgestrel and 0.5 mg of piroxicam (31 oocytes), with 1 mg of piroxicam (19 oocytes) and with 2 mg of piroxicam (0 oocytes) were much lower here and, in the highest dose, even led to complete anovulation (10 animals per group).
as §1, §2

[5] = system: adult female rats with normal cycles; assay: Ovulation inhibition test on rats; assay type: in vivo, rat
[6] = system: ovulated cumulus-oocyte complexes; assay: In vitro fertilization rate of ovulated cumulus-oocyte complexes after in vivo treatment (Example 3); set-up: species or system mice; conditions: n=5 animals
From the text: Substances can influence fertility by reducing the fertilizability of oocytes or cumulus-oocyte complexes. In order to investigate such effects, substances can be administered in vivo and, after ovulation from cumulus/oocyte complexes, can be subjected to in vitro fertilization. The in vitro fertilization rate, with no further test substance being added, allows conclusions to be drawn regarding the in vivo effects of the test substances.
Immature female mice (strain: B6D2F1, Charles River, Suelzfeld, age: 19-25 days) were housed in macrolon cages in rooms under controlled lighting conditions (12 hours of darkness, 12 hours of light), were fed a standard diet and had access to water ad libitum. The mice were primed with PMSG (Pregnant Mare Serum Gonadotropin) (10 IU/animal i.p.). After 48 hours, an ovulation-triggering stimulus was induced in the animals by administration of 10 IU/animal i.p. The COX inhibitors were suspended in a carrier liquid (85 mg MyrjR53 (2-hydroxyethyl octadecanoate; CAS no. 9004-99-3) in 100 ml of 0.9% w/v NaCl solution), and the daily dose corresponding to the treatment group (n=5 animals per group) was administered in a volume of 0.2 ml p.o. 8 hours before and together with hCG. Fourteen hours after hCG administration, the animals were sacrificed. Ovulated oocytes and cumulus-oocyte complexes were recovered from the ovarian bursa and/or oviduct and subjected to in vitro fertilization, with a sperm count of 40,000 sperm/0.5 ml for 1 hour being used for the fertilization. Twenty-four hours after incubation with the sperm, the number of fertilized oocytes was established and the percentage fertilization rate determined.

[7] = 25 mg on 9 successive days (Pall et al.)

For `C#C[C@]1(O)CC[C@H]2[C@@H]3CCC4=CC(=O)CC[C@@H]4[C@H]3CC[C@@]21C` [Norethisterone], the “minimal dose for inhibition of ovulation, p.o. dose/day” value (ovulation [1]) is listed as 0.5 mg^33.
In the case of `CC(=O)O[C@]1(C(C)=O)CC[C@H]2[C@@H]3C=C(Cl)C4=CC(=O)[C@@H]5C[C@@H]5[C@]4(C)[C@H]3CC[C@@]21C` [Cyproterone acetate (CPA), Cyproterone acetate], the “minimal dose for inhibition of ovulation, p.o. dose/day” value (ovulation [1]) is given as 1 mg^33.
In the case of `CC(=O)[C@H]1CC[C@H]2[C@@H]3CCC4=CC(=O)CC[C@]4(C)[C@H]3CC[C@]12C` [Progesterone], the “minimal dose for inhibition of ovulation, p.o. dose/day” value (ovulation [1]) is listed as 300 mg^33.
In the case of `CC(=O)O[C@]1(C(C)=O)CC[C@H]2[C@@H]3C=C(C)C4=CC(=O)CC[C@@H]4[C@H]3CC[C@@]21C` [Nomegestrol acetate (NOMAc), Nomegestrol acetate], the “minimal dose for inhibition of ovulation, p.o. dose/day” value (ovulation [1]) is listed as 2.5 mg^32.
In the case of `CS(=O)(=O)c1ccc(C2=C(c3ccccc3)C(=O)OC2)cc1` [rofecoxib], the delay in ovulation (ovulation [2]; [7]) is listed as “over 48 hours” and the “patients with delay in ovulation of over 48 hours” value (ovulation [2]; [7]) is listed as 4 of 6.
In the case of `C#C[C@]1(O)C=C[C@H]2[C@@H]3CCC4=CC(=O)CC[C@@H]4[C@H]3CC[C@@]21CC` [Gestodene (GSD), Gestodene], the “minimal dose for inhibition of ovulation, p.o. dose/day” value (ovulation [1]) is given as 30 µg and 40 to 50 µg.
In the case of `CN1C(C(=O)Nc2ccccn2)=C(O)c2ccccc2S1(=O)=O` [Piroxicam, piroxicam], the “Ovulation count, absolute” value ([3]; COX inhibitor 2 mg p.o.) is reported as 9, the “Ovulation count, mean” value ([3]; COX inhibitor 2 mg p.o.) is reported as 1.8 ± 0.4 and the oocytes ovulated ([3]; treatment group (c), 2 mg piroxicam on its own) is reported as 9 oocytes. The “Progesterone in proestrus at 19.00 h—mean ± SD (n = 10)” value ([4]; 0.5 mg p.o.) was 237 ± 49, the “Progesterone in proestrus at 19.00 h—mean ± SD (n = 10)” value ([4]; 1 mg p.o.) was 183 ± 67 and the “Progesterone in proestrus at 19.00 h—mean ± SD (n = 10)” value ([4]; 2 mg p.o.) was 122 ± 94. The oocytes ovulated ([5]; 1 mg piroxicam alone) was 28 oocytes, the oocytes ovulated ([5]; Example 2, 0.5 mg piroxicam p.o., 10 animals per group) was 85 oocytes and the oocytes ovulated ([5]; Example 2, 1 mg piroxicam p.o., 10 animals per group) was 56 oocytes. The oocytes ovulated ([5]; Example 2, 2 mg piroxicam p.o., 10 animals per group) was 30 oocytes, the “Fertilization rate (% ± SD)” value ([6]; 2 × 0.15 mg/animal p.o.) was 19 ± 8% and the “Fertilization rate (% ± SD)” value ([6]; 2 × 0.3 mg/animal p.o.) was 14 ± 18%. The “Fertilization rate (% ± SD)” value ([6]; 2 × 0.5 mg/animal p.o.) was 12 ± 7%.
In the case of `C#C[C@]1(O)CC[C@H]2[C@@H]3CCC4=CCCC[C@@H]4[C@H]3C(=C)C[C@@]21CC` [Desogestrel (DSG), Desogestrel], the “minimal dose for inhibition of ovulation, p.o. dose/day” value (ovulation [1]) is given as 60 μg^28.
In the case of `C[C@]12CCC(=O)C=C1[C@@H]1C[C@@H]1[C@H]1[C@@H]3[C@@H]4C[C@@H]4[C@@]4(CCC(=O)O4)[C@@]3(C)CC[C@@H]12` [Drospirenone (DRSP), Drospirenone], the “minimal dose for inhibition of ovulation, p.o. dose/day” value (ovulation [1]) is given as 2 mg^33.
In the case of `CC(=O)[C@@]1(C)CC[C@H]2[C@@H]3C=C(C)C4=CC(=O)CC[C@]4(C)[C@H]3CC[C@@]21C` [Medrogestone], the “minimal dose for inhibition of ovulation, p.o. dose/day” value (ovulation [1]) is listed as 10 mg^33.
For `C#C[C@]1(OC(C)=O)CC[C@H]2[C@@H]3CCC4=CC(=NO)CC[C@@H]4[C@H]3CC[C@@]21CC` (mixture of isomers) [Norgestimate (NGM), Norgestimate], the “minimal dose for inhibition of ovulation, p.o. dose/day” value (ovulation [1]) is listed as 180-250 μg^31.
In the case of `C#C[C@]1(OC(C)=O)CC[C@H]2[C@@H]3CCC4=CC(=O)CC[C@@H]4[C@H]3CC[C@@]21C` [Norethisterone acetate (NETA), Norethisterone acetate], the “minimal dose for inhibition of ovulation, p.o. dose/day” value (ovulation [1]) is listed as 0.5 mg^33.
For `CC(=O)O[C@]1(C(C)=O)CC[C@H]2[C@@H]3C[C@H](C)C4=CC(=O)CC[C@]4(C)[C@H]3CC[C@@]21C` [Medroxyprogesterone acetate (MPA), Medroxyprogesterone acetate], the “minimal dose for inhibition of ovulation, p.o. dose/day” value (ovulation [1]) is given as 10 mg^33.
For `CCC(=O)[C@@]1(C)CC[C@H]2[C@@H]3CCC4=CC(=O)CCC4=C3CC[C@@]21C` [Promegestone], the “minimal dose for inhibition of ovulation, p.o. dose/day” value (ovulation [1]) is given as 0.5 mg^33.
In the case of `C#C[C@]1(O)CC[C@H]2[C@@H]3CCC4=CCCC[C@@H]4[C@H]3CC[C@@]21C` [Lynestrenol], the “minimal dose for inhibition of ovulation, p.o. dose/day” value (ovulation [1]) is given as 2 mg^33.
For `C[C@H](O)C(=O)[C@@]1(C)CC[C@H]2[C@@H]3CCC4=CC(=O)CCC4=C3CC[C@@]21C` [Trimegestone], the “minimal dose for inhibition of ovulation, p.o. dose/day” value (ovulation [1]) is listed as 0.5 mg^33.
In the case of `C[C@]12CCC3=C4CCC(=O)C=C4CC[C@H]3[C@@H]1CC[C@@]2(O)CC#N` [Dienogest (DNG), Dienogest], the “minimal dose for inhibition of ovulation, p.o. dose/day” value (ovulation [1]) is listed as 1-2 mg^29.
For `CC(=O)[C@H]1CC[C@H]2[C@@H]3C=CC4=CC(=O)CC[C@@]4(C)[C@@H]3CC[C@]12C` [Dydrogesterone], the “minimal dose for inhibition of ovulation, p.o. dose/day” value (ovulation [1]) is given as greater than 30 mg^33.
With `C#C[C@]1(O)CC[C@H]2[C@@H]3CCC4=CC(=O)CC[C@@H]4[C@H]3CC[C@@]21CC` [LNG, levonorgestrel] the “Ovulation count, absolute” value ([3]; LNG 0.01 mg s.c.) was 35, the “Ovulation count, mean” value ([3]; LNG 0.01 mg s.c.) was 7.0 ± 2.0 and the oocytes ovulated ([5]; Example 2, LNG on its own (0.01 mg s.c.), 10 animals per group) was 68 oocytes. It also gave an oocytes ovulated ([5]; treatment group (b), 0.1 mg of levonorgestrel, 5 animals) of 35 oocytes.
For `Cc1cnc(NC(=O)C2=C(O)c3ccccc3S(=O)(=O)N2C)s1` [Meloxicam, meloxicam], the “Ovulation count, absolute” value ([3]; COX inhibitor 2 mg p.o.) is listed as 28, the “Ovulation count, mean” value ([3]; COX inhibitor 2 mg p.o.) is listed as 5.6 ± 2.5 and the delay in ovulation (ovulation [2]; 30 mg per patient and day on 5 successive days (Bata et al.)) is listed as 5 days.
In the case of `C#C[C@]1(O)CC[C@H]2[C@@H]3CCC4=C[C@@H](O)CC[C@@H]4[C@H]3CC[C@@]21C` [Ethynodiol], the “minimal dose for inhibition of ovulation, p.o. dose/day” value (ovulation [1]) is listed as 2 mg33.
